{"source": "patent US20250066366A1", "about": "“Crystal form of isobutyrate nucleoside compound, and preparation method” (Shenzhen AntiV Pharma Co., Ltd., priority 2021, published 2025)", "assay_type_in_all_cases": "physicochemical", "key": {"[1]": {"test": "Solid state stability test (XRPD and HPLC)", "conditions": "for Purity-1 week (Peak area %): HPLC, initial purity 99.71%; for Crystal-1 week: XRPD", "from_the_text": "(§1) X-ray powder diffraction patterns were collected on a PANalytical Empyrean X-ray diffractometer of the Netherlands equipped with a transmission-reflection sample stage with an automated 3*15 zero background sample holder. The radiation source used was (Cu, kα, Kα1 (Å): 1.540598; Kα2 (Å): 1.544426; Kα2/Kα1 intensity ratio: 0.50), wherein the voltage was set at 45 KV and the current was set at 40 mA. The beam divergence of the X-rays, i.e. the effective size of the X-ray confinement on the sample, was 6.6 mm. The continuous scanning mode of θ-θ was adopted, and an effective 2θ range of 3° to 40° was obtained. A proper amount of sample was placed at the position of the circular groove of the zero-background sample rack under the environmental condition (about 18° C. to 32° C.), the sample was lightly pressed with a clean glass slide to obtain a flat plane, and the zero-background sample rack was fixed. The samples were scanned at a scan step of 0.013° in the range of 3° to 40° 2θ±0.2° to obtain a traditional X-ray powder diffraction pattern.\nThe instrument used for liquid chromatography analysis is Agilent HPLC 1260 series, which is used for the analysis of solid-state stability of samples.\nA certain amount of crystalline form III of compound A as a sample was placed under conditions of 40° C./75% RH (open) and 60° C. (closed) for one week, and XRPD and HPLC of the sample were tested."}, "[2]": {"test": "Solubility test in biological media (SGF, FaSSIF, FeSSIF) and water at 37° C.", "conditions": "for pH (24 h): solution pH after 24 h; for solubility at 0.5 h: read-out: Solubility (mg/mL) 0.5 h; for solubility at 2 h: read-out: Solubility (mg/mL) 2 h; for solubility at 24 h: read-out: Solubility (mg/mL) 24 h", "method": "Crystalline form III has the highest solubility in SGF (>7 mg/mL). The solubility in pure water, FeSSIF, and FaSSIF were all greater than 1 mg/mL."}, "[3]": {"test": "Dynamic water vapor adsorption detection of crystalline form III"}, "[4]": {"test": "Grinding experiment of crystalline form III (XRPD after manual grinding)", "conditions": "ground manually with mortar and pestle for 5 minutes", "from_the_text": "as §1\nCrystalline form III was ground manually with a mortar and pestle for 5 minutes, and XRPD of the ground solid was tested."}}, "note": "Read-outs that look alike come from different tables or passages of the source. Marks after values point to notes of the source that are not given here."}
{"molecule": "CC(C)C(=O)OC[C@H]1O[C@@](C#N)(c2ccc3c(N)ncnn23)[C@H](O)[C@@H]1O", "note": "[crystalline form III, ((2R,3S,4R,5R)-5-(4-aminopyrrolo[2,1-f][1,2,4]triazin-7-yl)-5-cyano-3,4-dihydroxytetrahydrofuran-2-yl) methyl isobutyrate]", "values": [{"measurement": "Purity-1 week (Peak area %)", "setting": "[1]; 40° C./75% RH, open, listed as Sample 1", "result": 99.68, "unit": "%"}, {"measurement": "Purity-1 week (Peak area %)", "setting": "[1]; 40° C./75% RH, open, listed as Sample 2", "result": 99.71, "unit": "%"}, {"measurement": "Crystal-1 week", "setting": "[1]; 40° C./75% RH, open", "result": "No change"}, {"measurement": "Purity-1 week (Peak area %)", "setting": "[1]; 60° C. & closed, listed as Sample 1", "result": 99.71, "unit": "%"}, {"measurement": "Purity-1 week (Peak area %)", "setting": "[1]; 60° C. & closed, listed as Sample 2", "result": 99.65, "unit": "%"}, {"measurement": "Crystal-1 week", "setting": "[1]; 60° C. & closed", "result": "No change"}, {"measurement": "physical and chemical stability", "setting": "[1]; two acceleration conditions (40° C./75% RH open, 60° C. closed) for 14 days", "result": "physically and chemically stable"}, {"measurement": "pH (24 h)", "setting": "[2]; FaSSIF (pH = 6.53)", "result": 6.50}, {"measurement": "pH (24 h)", "setting": "[2]; FeSSIF (pH = 4.97)", "result": 4.96}, {"measurement": "Solubility (mg/mL)", "setting": "[2]; SGF (pH = 1.20), 0.5 h, 2 h, 24 h, visual observation", "result": ">7* mg/mL"}, {"measurement": "pH (24 h)", "setting": "[2]; SGF (pH = 1.20)", "result": 1.37}, {"measurement": "change in solution pH after the solubility test", "setting": "[2]; SGF, FaSSIF, FeSSIF and water", "result": "no significant change"}, {"measurement": "pH (24 h)", "setting": "[2]; Water (pH = 6.67)", "result": 6.43}, {"measurement": "solubility", "setting": "[2]; pH 1.2, simulated gastric fluid, thermodynamic from solid, SGF (pH = 1.20), 0.5 h, 2 h, 24 h, visual observation", "result": "> 7000", "unit": "µg/mL"}, {"measurement": "solubility", "setting": "[2]; pH 4.97, thermodynamic from solid, FeSSIF", "result": "> 1000", "unit": "µg/mL"}, {"measurement": "solubility", "setting": "[2]; pH 6.53, thermodynamic from solid, FaSSIF", "result": "> 1000", "unit": "µg/mL"}, {"measurement": "solubility", "setting": "[2]; pH 6.67, thermodynamic from solid, pure water", "result": "> 1000", "unit": "µg/mL"}, {"measurement": "XRPD (24 h)", "setting": "[2]; solid after 24 h in FaSSIF (pH = 6.53)", "result": "Crystalline"}, {"measurement": "XRPD (24 h)", "setting": "[2]; solid after 24 h in FeSSIF (pH = 4.97)", "result": "Crystalline"}, {"measurement": "XRPD (24 h)", "setting": "[2]; solid after 24 h in Water (pH = 6.67)", "result": "Crystalline"}, {"measurement": "solubility at 0.5 h", "setting": "[2]; thermodynamic from solid, FaSSIF (pH = 6.53), 0.5 h", "result": 1.22, "unit": "mg/mL"}, {"measurement": "solubility at 2 h", "setting": "[2]; thermodynamic from solid, FaSSIF (pH = 6.53), 2 h", "result": 1.26, "unit": "mg/mL"}, {"measurement": "solubility at 24 h", "setting": "[2]; thermodynamic from solid, FaSSIF (pH = 6.53), 24 h", "result": 1.19, "unit": "mg/mL"}, {"measurement": "solubility at 0.5 h", "setting": "[2]; thermodynamic from solid, FeSSIF (pH = 4.97), 0.5 h", "result": 1.63, "unit": "mg/mL"}, {"measurement": "solubility at 2 h", "setting": "[2]; thermodynamic from solid, FeSSIF (pH = 4.97), 2 h", "result": 1.66, "unit": "mg/mL"}, {"measurement": "solubility at 24 h", "setting": "[2]; thermodynamic from solid, FeSSIF (pH = 4.97), 24 h", "result": 1.68, "unit": "mg/mL"}, {"measurement": "solubility at 0.5 h", "setting": "[2]; thermodynamic from solid, Water (pH = 6.67), 0.5 h", "result": 1.11, "unit": "mg/mL"}, {"measurement": "solubility at 2 h", "setting": "[2]; thermodynamic from solid, Water (pH = 6.67), 2 h", "result": 1.22, "unit": "mg/mL"}, {"measurement": "solubility at 24 h", "setting": "[2]; thermodynamic from solid, Water (pH = 6.67), 24 h", "result": 1.24, "unit": "mg/mL"}, {"measurement": "weight gain", "setting": "[3]; 80% RH and 25° C.", "result": "less than 0.2%"}, {"measurement": "crystalline form after testing", "setting": "[3]; after dynamic water vapor adsorption test", "result": "did not change"}, {"measurement": "hygroscopicity", "setting": "[3]; dynamic water vapor adsorption test", "result": "does not have hygroscopicity"}, {"measurement": "crystalline structure after grinding (XRPD)", "setting": "[4]", "result": "did not change"}]}
